Patent publication US8461410B2, “Wound dressing materials comprising complexes of anionic polysaccharides with silver” (Ethicon, Inc., priority 2002, dated 2013)

Key:
Pseudomonas aeruginosa = test: Zone of inhibition test of bactericidal activity (Procedure 1); format: cell-based; conditions: 2 cm x 2 cm sample on inoculated DSA plate, 37° C., read every 24 hours; FIG. 3
Procedure: (§1) Six 2 cm×2 cm squares of each sample were cut out in sterile conditions. On day one of the experiment cultures of both Pseudomonas aeruginosa and Staphylococcus aureus were incubated aerobically at 37° C. for 24 hours on Diagnostic Sensitivity Agar (DSA). After 24 hours test samples were each placed on a DSA plate and were immediately wetted with 0.5 mls of a buffer solution. Three squares of sample were placed on plates inoculated with Pseudomonas aeruginosa and three were placed on plates inoculated with Staphylococcus aureus. The plates were then incubated at 37° C. for 24 hours. The zone of inhibited growth around the sample was then measured using callipers and the test sample was placed on a new inoculated DSA plate. A swab test was carried out on the area beneath the sample to determine if the sample was bacteriostatic if not bactericidal by smearing the swab on a DSA plate and incubating it for 24 hours and then examining the growth. The samples were transferred onto fresh inoculated plates with the above procedure being carried out every 24 hours for 72 hours as long as the samples remain intact.
(§2) As a negative control, a freeze dried sponge of 45% ORC/55% collagen without any silver was tested.

Staphylococcus aureus = test: as above; format: cell-based; conditions: 2 cm x 2 cm sample on inoculated DSA plate, 37° C., read every 24 hours; FIGS. 1 and 2
Procedure: as §1, §2

Compound: O=[N+]([O-])[O-].[Ag+] [silver nitrate solution (0.5%), silver nitrate]
- bactericidal effect / zone of inhibition against Pseudomonas aeruginosa (Pseudomonas aeruginosa): zones of inhibition were observed
- bactericidal effect / zone of inhibition against Staphylococcus aureus (Staphylococcus aureus): zones of inhibition were observed
